Molecules are shown by their SMILES.

For this experiment, the target named is T1, PDE5A1 (human PDE5 from platelets) (Homo sapiens, UniProt O76074).
T1 construct: from tissue; host or cells: platelets from fresh blood of human donors (10,000 g supernatant of sonified platelets)
In words: Inhibition of type 5 phosphodiesterase (PDE5) activity, modified SPA test. As to conditions: PDE5-containing human platelet lysate, 0.5 μM cGMP, value classes, read-out: PDE5A1 inhibitory values [measured as −logIC50 (mol/l)] (converted). It counts as biochemical. The method, boiled down: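 Enzyme source: human platelet lysate (10,000 g supernatant), with 1 μM motapizone and 10 nM PDE2 inhibitor present. SPA format in 20 mM Tris pH 7.4, 5 mM Mg2+, 0.5 μM cGMP with [3H]cGMP tracer; 5 min preincubation at 37 °C, 15 min reaction, stopped with IBMX-containing beads. IC50 by non-linear regression.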
On to `CC(=O)N[C@H]1CC[C@H](NC(=O)c2c(C)[nH]c3c(-c4cc(C)ccc4OCC4CC4)ccnc23)CC1` [Example E55, N-[trans-4-(Acetylamino)cyclohexyl]-7-[2-(cyclopropylmethoxy)-5-methylphenyl]-2-methyl-1H-pyrrolo[3,2-b]pyridine-3-carboxamide], for which the IC50 was 1 to 10 nM.

Turning to `CCC(=O)N[C@H]1CC[C@H](NC(=O)c2c(C)[nH]c3c(-c4cc(C)ccc4OCC4CC4)ccnc23)CC1` [Example E56, 7-[2-(Cyclopropylmethoxy)-5-methylphenyl]-2-methyl-N-[trans-4-(propanoylamino)cyclohexyl]-1H-pyrrolo[3,2-b]pyridine-3-carboxamide], the IC50 was 1 to 10 nM.

As for `COCC(=O)N[C@H]1CC[C@H](NC(=O)c2c(C)[nH]c3c(-c4cc(C)ccc4OCC4CC4)ccnc23)CC1` [Example E57, 7-[2-(Cyclopropylmethoxy)-5-methylphenyl]-N-{trans-4-[(methoxyacetyl)amino]cyclohexyl}-2-methyl-1H-pyrrolo[3,2-b]pyridine-3-carboxamide], the IC50 is 1 to 10 nM.

On to `CC(=O)N[C@H]1CC[C@@H](NC(=O)c2c(C)[nH]c3c(-c4cc(C)ccc4OCC4CC4)ccnc23)CC1` [Example E58, N-[cis-4-(Acetylamino)cyclohexyl]-7-[2-(cyclopropylmethoxy)-5-methylphenyl]-2-methyl-1H-pyrrolo[3,2-b]pyridine-3-carboxamide], for which the IC50 was 1 to 10 nM.

Take `CCC(=O)N[C@H]1CC[C@@H](NC(=O)c2c(C)[nH]c3c(-c4cc(C)ccc4OCC4CC4)ccnc23)CC1` [Example E59, 7-[2-(Cyclopropylmethoxy)-5-methylphenyl]-2-methyl-N-[cis-4-(propanoylamino)cyclohexyl]-1H-pyrrolo[3,2-b]pyridine-3-carboxamide]: the IC50 is 1 to 10 nM.

For `COCC(=O)N[C@H]1CC[C@@H](NC(=O)c2c(C)[nH]c3c(-c4cc(C)ccc4OCC4CC4)ccnc23)CC1` [Example E60, 7-[2-(Cyclopropylmethoxy)-5-methylphenyl]-N-{cis-4-[(methoxyacetyl)amino]cyclohexyl}-2-methyl-1H-pyrrolo[3,2-b]pyridine-3-carboxamide], the IC50 was 1 to 10 nM.

Regarding `COc1cc(-c2ccnc3c(C(=O)NC4CCN(C(C)=O)CC4)c(C)[nH]c23)c(OCC2CC2)cc1F` [Example E61, N-(1-Acetylpiperidin-4-yl)-7-[2-(cyclopropylmethoxy)-4-fluoro-5-methoxyphenyl]-2-methyl-1H-pyrrolo[3,2-b]pyridine-3-carboxamide], the IC50 was under 1 nM.

For `CCC(=O)N1CCC(NC(=O)c2c(C)[nH]c3c(-c4cc(OC)c(F)cc4OCC4CC4)ccnc23)CC1` [Example E62, 7-[2-(Cyclopropylmethoxy)-4-fluoro-5-methoxyphenyl]-2-methyl-N-(1-propanoylpiperidin-4-yl)-1H-pyrrolo[3,2-b]pyridine-3-carboxamide], the IC50 was under 1 nM.

Take `COCC(=O)N1CCC(NC(=O)c2c(C)[nH]c3c(-c4cc(OC)c(F)cc4OCC4CC4)ccnc23)CC1` [Example E63, 7-[2-(Cyclopropylmethoxy)-4-fluoro-5-methoxyphenyl]-N-[1-(methoxyacetyl)piperidin-4-yl]-2-methyl-1H-pyrrolo[3,2-b]pyridine-3-carboxamide]: the IC50 was under 1 nM.

With `COc1cc(-c2ccnc3c(C(=O)N[C@H]4CC[C@H](NC(C)=O)CC4)c(C)[nH]c23)c(OCC2CC2)cc1F` [Example E64, N-[trans-4-(Acetylamino)cyclohexyl]-7-[2-(cyclopropylmethoxy)-4-fluoro-5-methoxyphenyl]-2-methyl-1H-pyrrolo[3,2-b]pyridine-3-carboxamide], the IC50 is under 1 nM.

As to `CCC(=O)N[C@H]1CC[C@H](NC(=O)c2c(C)[nH]c3c(-c4cc(OC)c(F)cc4OCC4CC4)ccnc23)CC1` [Example E65, 7-[2-(Cyclopropylmethoxy)-4-fluoro-5-methoxyphenyl]-2-methyl-N-[trans-4-(propanoylamino)cyclohexyl]-1H-pyrrolo[3,2-b]pyridine-3-carboxamide], the IC50 was under 1 nM.

Take `COCC(=O)N[C@H]1CC[C@H](NC(=O)c2c(C)[nH]c3c(-c4cc(OC)c(F)cc4OCC4CC4)ccnc23)CC1` [Example E66, 7-[2-(Cyclopropylmethoxy)-4-fluoro-5-methoxyphenyl]-N-{trans-4-[(methoxyacetyl)amino]cyclohexyl}-2-methyl-1H-pyrrolo[3,2-b]pyridine-3-carboxamide]: the IC50 is under 1 nM.

`COc1cc(-c2ccnc3c(C(=O)N[C@H]4CC[C@@H](NC(C)=O)CC4)c(C)[nH]c23)c(OCC2CC2)cc1F` [Example E67, N-[cis-4-(Acetylamino)cyclohexyl]-7-[2-(cyclopropylmethoxy)-4-fluoro-5-methoxyphenyl]-2-methyl-1H-pyrrolo[3,2-b]pyridine-3-carboxamide]: the IC50 is under 1 nM.

`CCC(=O)N[C@H]1CC[C@@H](NC(=O)c2c(C)[nH]c3c(-c4cc(OC)c(F)cc4OCC4CC4)ccnc23)CC1` [Example E68, 7-[2-(Cyclopropylmethoxy)-4-fluoro-5-methoxyphenyl]-2-methyl-N-[cis-4-(propanoylamino)cyclohexyl]-1H-pyrrolo[3,2-b]pyridine-3-carboxamide]: the IC50 was under 1 nM.

As for `COCC(=O)N[C@H]1CC[C@@H](NC(=O)c2c(C)[nH]c3c(-c4cc(OC)c(F)cc4OCC4CC4)ccnc23)CC1` [Example E69, 7-[2-(Cyclopropylmethoxy)-4-fluoro-5-methoxyphenyl]-N-{cis-4-[(methoxyacetyl)amino]cyclohexyl}-2-methyl-1H-pyrrolo[3,2-b]pyridine-3-carboxamide], the IC50 was under 1 nM.

On to `COc1cc(OCC2CC2)c(-c2ccnc3c(C(=O)NC4CCN(C(C)=O)CC4)c(C)[nH]c23)cc1F` [Example E76, N-(1-Acetylpiperidin-4-yl)-7-[2-(cyclopropylmethoxy)-5-fluoro-4-methoxyphenyl]-2-methyl-1H-pyrrolo[3,2-b]pyridine-3-carboxamide], for which the IC50 is under 1 nM.

For `CCC(=O)N1CCC(NC(=O)c2c(C)[nH]c3c(-c4cc(F)c(OC)cc4OCC4CC4)ccnc23)CC1` [Example E77, 7-[2-(Cyclopropylmethoxy)-5-fluoro-4-methoxyphenyl]-2-methyl-N-(1-propionylpiperidin-4-yl)-1H-pyrrolo[3,2-b]pyridine-3-carboxamide], the IC50 is under 1 nM.

Regarding `COCC(=O)N1CCC(NC(=O)c2c(C)[nH]c3c(-c4cc(F)c(OC)cc4OCC4CC4)ccnc23)CC1` [Example E78, 7-[2-(Cyclopropylmethoxy)-5-fluoro-4-methoxyphenyl]-N-[1-(methoxyacetyl)piperidin-4-yl]-2-methyl-1H-pyrrolo[3,2-b]pyridine-3-carboxamide], the IC50 was under 1 nM.

For `COc1cc(OCC2CC2)c(-c2ccnc3c(C(=O)N[C@H]4CC[C@H](NC(C)=O)CC4)c(C)[nH]c23)cc1F` [Example E79, N-(trans-4-Acetamidocyclohexyl)-7-[2-(cyclopropylmethoxy)-5-fluoro-4-methoxyphenyl]-2-methyl-1H-pyrrolo[3,2-b]pyridine-3-carboxamide], the IC50 is under 1 nM.

With `CCC(=O)N[C@H]1CC[C@H](NC(=O)c2c(C)[nH]c3c(-c4cc(F)c(OC)cc4OCC4CC4)ccnc23)CC1` [Example E80, 7-[2-(Cyclopropylmethoxy)-5-fluoro-4-methoxyphenyl]-2-methyl-N-[trans-4-(propionylamino)cyclohexyl]-1H-pyrrolo[3,2-b]pyridine-3-carboxamide], the IC50 was under 1 nM.

Take `COCC(=O)N[C@H]1CC[C@H](NC(=O)c2c(C)[nH]c3c(-c4cc(F)c(OC)cc4OCC4CC4)ccnc23)CC1` [Example E81, 7-[2-(Cyclopropylmethoxy)-5-fluoro-4-methoxyphenyl]-N-{trans-4-[(methoxyacetyl)amino]cyclohexyl}-2-methyl-1H-pyrrolo[3,2-b]pyridine-3-carboxamide]: the IC50 is under 1 nM.

As for `COc1cc(OCC2CC2)c(-c2ccnc3c(C(=O)N[C@H]4CC[C@@H](NC(C)=O)CC4)c(C)[nH]c23)cc1F` [Example E82, N-(cis-4-Acetamidocyclohexyl)-7-[2-(cyclopropylmethoxy)-5-fluoro-4-methoxyphenyl]-2-methyl-1H-pyrrolo[3,2-b]pyridine-3-carboxamide], the IC50 is under 1 nM.

Consider `CCC(=O)N[C@H]1CC[C@@H](NC(=O)c2c(C)[nH]c3c(-c4cc(F)c(OC)cc4OCC4CC4)ccnc23)CC1` [Example E83, 7-[2-(Cyclopropylmethoxy)-5-fluoro-4-methoxyphenyl]-2-methyl-N-[cis-4-(propionylamino)cyclohexyl]-1H-pyrrolo[3,2-b]pyridine-3-carboxamide], for which the IC50 was under 1 nM.

As to `COCC(=O)N[C@H]1CC[C@@H](NC(=O)c2c(C)[nH]c3c(-c4cc(F)c(OC)cc4OCC4CC4)ccnc23)CC1` [Example E84, 7-[2-(Cyclopropylmethoxy)-5-fluoro-4-methoxyphenyl]-N-{cis-4-[(methoxyacetyl)amino]cyclohexyl}-2-methyl-1H-pyrrolo[3,2-b]pyridine-3-carboxamide], the IC50 is under 1 nM.

With `Cc1[nH]c2c(-c3c(OCC4CC4)ccc4c3OCO4)ccnc2c1C(=O)N[C@H]1CC[C@@H](NC(=O)CO)CC1` [Example F04, 7-[5-(Cyclopropylmethoxy)-1,3-benzodioxol-4-yl]-N-[cis-4-(glycoloylamino)cyclohexyl]-2-methyl-1H-pyrrolo[3,2-b]pyridine-3-carboxamide], the IC50 was under 1 nM.

Turning to `Cc1[nH]c2c(-c3c(OCC4CC4)ccc4c3OCO4)ccnc2c1C(=O)N[C@H]1CC[C@@H](NC(=O)[C@H](C)O)CC1` [Example F05, 7-[5-(Cyclopropylmethoxy)-1,3-benzodioxol-4-yl]-N-(cis-4-{[(2S)-2-hydroxypropanoyl]amino}cyclohexyl)-2-methyl-1H-pyrrolo[3,2-b]pyridine-3-carboxamide], the IC50 was under 1 nM.

The record behind these values is patent US8816085B2 (Takeda GmbH, priority 2009, dated 2014).
